In data set [1] the test system is Daudi cell line (AID positive). The data set is described as follows: Primary screening cell killing assay, Daudi cell line (AID positive). Format: cell-based. The settings on record: Homo sapiens, 168 h, cell death on Day 7, Cell-Titer Glo. The method, boiled down:
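AID-positive Daudi cells, 1250 per well, were exposed to serially diluted compounds for 7 days at 37° C. Viability read by CellTiter-Glo luminescence; percent cell death and EC50 derived against untreated wells after media-blank subtraction.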

Data set [2] in a line: Bi-directional Caco-2 permeability. Format: in vitro ADME. To be noted: human; for efflux ratio at 90 min: Caco-2, read-out: BA/AB Ratio; for Papp A→B at 90 min: Caco-2, apical to basolateral, read-out: AB Papp (cm/sec × 10^6); for Papp A→B at 90 min / Papp B→A at 90 min: 37 C, up to 90 minutes; for Papp B→A at 90 min: Caco-2, basolateral to apical, read-out: BA Papp (cm/sec × 10^6). Here is the method: Bi-directional Caco-2 permeability was assayed. Caco-2 cells were seeded onto permeable polycarbonate supports and allowed to differentiate for about 3 weeks prior to being used in the assays. The cells were then exposed to the compounds from either the apical or basolateral sides and incubated at 37 C for up to 90 minutes under light agitation. Compound transport was then measured using LC/MS/MS analysis at 30, 60, and 90 minutes.
In general terms: Caco-2 cells form a polarised layer with tight junctions and transporters.

The subject of data set [3] is WI-38 cells (AID negative). The data set is described as follows: Primary screening cell killing assay repeated in WI-38 cells (AID negative). The class given is cell-based. To be noted: Homo sapiens, 168 h, cell death on Day 7, Cell-Titer Glo. Here is the method: Primary screening was a phenotypic screen that utilized the synthetic lethal interaction between AID and RAD51 to identify compounds that were both potent and on target. AID expressing cells are dependent upon RAD51 for survival; inhibiting RAD51 in AID positive cells results in a cytotoxic effect.
Percent cell death and EC50 values were calculated by comparing the cell viability of the compound treated wells to the non-treated wells. Normalized RLU values were obtained by subtracting the media well values from each of the wells in the same column, and then dividing that value by the DMSO treated cells values. The percent kill was then calculated by subtracting the normalized RLU value from 1 and multiplying by 100. The average normalized percent kill value and standard error of the mean was then calculated. The kill values were then inputted into Prism with the corresponding standard errors. In Prism a non-linear regression line was plotted with the data points using a semi-log scale, and the EC50 value was calculated.

Where [4] appears, read: Caco-2, Caco-2, AB direction, read-out: AB Recovery %.
Where [5] appears, read: Caco-2, Caco-2, BA direction, read-out: BA Recovery %.

Where two headings read alike, the source gives them in different places.

As to `CC(C)(C)NS(=O)(=O)c1cc(NC(=O)NCc2ccccc2)ccc1-c1cnc([C@H]2CC[C@H](NC(=O)OC(C)(C)C)CC2)s1` [Ex. 10, trans-tert-butyl N-[4-[5-[4-(benzylcarbamoylamino)-2-(tert-butylsulfamoyl)phenyl]thiazol-2-yl]cyclohexyl]carbamate], the EC50 in data set [1] was not above 100 nM. For the same compound, the recovery at 90 min in data set [2] (setting [4]) came out at 59.9%. Also, the recovery at 90 min in data set [2] (setting [5]) is 87.2%. In data set [2], the efflux ratio at 90 min was found to be 1.3, the Papp A→B at 90 min stood at 1.2 ×10⁻⁶ cm/s and the Papp B→A at 90 min worked out at 1.5 ×10⁻⁶ cm/s. In data set [3], this compound returned an EC50 of more than 1000 nM.

For the compound `CC(C)OC(=O)Nc1ccc(-c2cnc(C34CCC(NC(=O)OC(C)C)(CC3)CC4)s2)c(S(=O)(=O)NC(C)(C)C)c1` [Ex. 17, isopropyl N-[3-(tert-butylsulfamoyl)-4-[2-[4-(isopropoxycarbonylamino)-1-bicyclo[2.2.2]octanyl]thiazol-5-yl]phenyl]carbamate], the EC50 in data set [1] fell in the range of 100 to 1000 nM. The recovery at 90 min in data set [2] (setting [4]) amounted to 47.2%. Moreover, the recovery at 90 min in data set [2] (setting [5]) worked out at 81.9%. In data set [2], the efflux ratio at 90 min is 0.8, the Papp A→B at 90 min was 2.8 ×10⁻⁶ cm/s and the Papp B→A at 90 min was determined as 2.1 ×10⁻⁶ cm/s. The same compound gave an EC50 in data set [3] of more than 1000 nM.

Regarding `CC(C)OC(=O)N[C@H]1CC[C@H](c2ncc(-c3ccc(NC(=O)NCc4cccc(F)c4)cc3S(=O)(=O)NC(C)(C)C)s2)CC1` [Ex. 27, isopropyl ((1r,4r)-4-(5-(2-(N-(tert-butyl)sulfamoyl)-4-(3-(3-fluorobenzyl)ureido)phenyl)thiazol-2-yl)cyclohexyl)carbamate], in data set [1], the half-maximal effective concentration (EC50) was not above 100 nM. For the same compound, in data set [2] (setting [4]), the recovery at 90 min was 92%. The recovery at 90 min in data set [2] (setting [5]) was 107%. Besides, in data set [2], the efflux ratio at 90 min is 0.7, the Papp A→B at 90 min worked out at 0.7 ×10⁻⁶ cm/s and the Papp B→A at 90 min amounted to 0.5 ×10⁻⁶ cm/s. The EC50 in data set [3] is more than 1000 nM.

For `CC(C)OC(=O)N[C@H]1CC[C@H](c2ncc(-c3ccc(NC(=O)N[C@H](C)c4ccccn4)cc3S(=O)(=O)NC(C)(C)C)s2)CC1` [Ex. 30, isopropyl ((1R,4r)-4-(5-(2-(N-(tert-butyl)sulfamoyl)-4-(3-((R)-1-(pyridin-2-yl)ethyl)ureido)phenyl)thiazol-2-yl)cyclohexyl)carbamate], the results for the EC50 in data set [1] and in data set [3] were not above 100 nM and more than 1000 nM, respectively. In addition, the recovery at 90 min came out at 79.8% in data set [2] (setting [4]) and 116% in data set [2] (setting [5]). For the same compound, the efflux ratio at 90 min in data set [2] worked out at 1.4. The Papp A→B at 90 min in data set [2] amounted to 11.5 ×10⁻⁶ cm/s. In addition, in data set [2], the Papp B→A at 90 min was determined as 15.7 ×10⁻⁶ cm/s.

With `CC(C)OC(=O)NC1CCC(c2ncc(-c3ccc(NC(=O)OC4COC4)cc3S(=O)(=O)NC(C)(C)C)s2)CC1` (centres unmarked) [Ex. 38, isopropyl ((1r,4r)-4-(5-(2-(N-(tert-butyl)sulfamoyl)-4-(((oxetan-3-yloxy)carbonyl)amino)phenyl)thiazol-2-yl)cyclohexyl)carbamate], the half-maximal effective concentration (EC50) in data set [1] was not above 100 nM. The recovery at 90 min in data set [2] (setting [4]) is 73.3%. Besides, the recovery at 90 min in data set [2] (setting [5]) was found to be 82.3%. In addition, in data set [2], the efflux ratio at 90 min turned out to be 1.3, the Papp A→B at 90 min amounted to 17.9 ×10⁻⁶ cm/s and the Papp B→A at 90 min is 22.9 ×10⁻⁶ cm/s. The compound further displayed a half-maximal effective concentration (EC50) in data set [3] of more than 1000 nM.

In the case of `CC(C)(C)NS(=O)(=O)c1cc(NC(=O)NCc2ccccc2)ccc1-c1cnc([C@H]2CC[C@H](NC(=O)OC3COC3)CC2)s1` [Ex. 47, trans-oxetan-3-yl N-[4-[5-[4-(benzylcarbamoylamino)-2-(tert-butylsulfamoyl)phenyl]thiazol-2-yl]cyclohexyl]carbamate], the EC50 in data set [1] is not above 100 nM. In data set [2] (setting [4]), the recovery at 90 min amounted to 65.3%. Also, the recovery at 90 min in data set [2] (setting [5]) was determined as 80.7%. In data set [2], the efflux ratio at 90 min came out at 1.4, the Papp A→B at 90 min stood at 8.7 ×10⁻⁶ cm/s and the Papp B→A at 90 min was determined as 12.4 ×10⁻⁶ cm/s. The same compound showed an EC50 in data set [3] of more than 1000 nM.

With `CC(C)OC(=O)Nc1ccc(-c2cnc(C3CCC(NC(=O)OC4COC4)CC3)s2)c(S(=O)(=O)NC(C)(C)C)c1` (centres unmarked) [Ex. 48, oxetan-3-yl ((1r,4r)-4-(5-(2-(N-(tert-butyl)sulfamoyl)-4-((isopropoxycarbonyl)amino)phenyl)thiazol-2-yl)cyclohexyl)carbamate], the EC50 in data set [1] was 100 to 1000 nM. Besides, the recovery at 90 min in data set [2] (setting [4]) was found to be 80.1%. Besides, the recovery at 90 min in data set [2] (setting [5]) turned out to be 90.3%. Besides, in data set [2], the efflux ratio at 90 min was 0.7, the Papp A→B at 90 min stood at 23.1 ×10⁻⁶ cm/s and the Papp B→A at 90 min is 16 ×10⁻⁶ cm/s. In data set [3], this compound yielded an EC50 of more than 1000 nM.

On to `CC(C)(C)NS(=O)(=O)c1cc(NC(=O)NCc2ccccn2)ccc1-c1cnc(C2CCC(NC(=O)OC3COC3)CC2)s1` (centres unmarked) [Ex. 50, oxetan-3-yl ((1r,4r)-4-(5-(2-(N-(tert-butyl)sulfamoyl)-4-(3-(pyridin-2-ylmethyl)ureido)phenyl)thiazol-2-yl)cyclohexyl)carbamate], for which the figures for the EC50 in data set [1] and in data set [3] were not above 100 nM and more than 1000 nM, respectively. Besides, the recovery at 90 min in data set [2] (setting [4]) came out at 87.7%; in data set [2] (setting [5]), 98.1%. Also, the efflux ratio at 90 min in data set [2] is 14.6. For the same compound, the Papp A→B at 90 min in data set [2] was 2 ×10⁻⁶ cm/s. Moreover, in data set [2], the Papp B→A at 90 min stood at 29.1 ×10⁻⁶ cm/s.

Turning to `C[C@H](NC(=O)Nc1ccc(-c2cnc(C3CCC(NC(=O)OC4COC4)CC3)s2)c(S(=O)(=O)NC(C)(C)C)c1)c1ccccc1` (stereo partly drawn) [Ex. 51, oxetan-3-yl ((1S,4r)-4-(5-(2-(N-(tert-butyl)sulfamoyl)-4-(3-((S)-1-phenylethyl)ureido)phenyl)thiazol-2-yl)cyclohexyl)carbamate], in data set [1], the half-maximal effective concentration (EC50) is not above 100 nM. Also, the recovery at 90 min in data set [2] (setting [4]) came out at 65%. For the same compound, the recovery at 90 min in data set [2] (setting [5]) came to 85.7%. Also, in data set [2], the efflux ratio at 90 min is 1.1, the Papp A→B at 90 min was found to be 9.9 ×10⁻⁶ cm/s and the Papp B→A at 90 min is 10.5 ×10⁻⁶ cm/s. Moreover, the EC50 in data set [3] was more than 1000 nM.

In data set [1], `C[C@@H](NC(=O)Nc1ccc(-c2cnc(C3CCC(NC(=O)OC4COC4)CC3)s2)c(S(=O)(=O)NC(C)(C)C)c1)c1ccccc1` (stereo partly drawn) [Ex. 52, oxetan-3-yl ((1R,4r)-4-(5-(2-(N-(tert-butyl)sulfamoyl)-4-(3-((R)-1-phenylethyl)ureido)phenyl)thiazol-2-yl)cyclohexyl)carbamate] registered a half-maximal effective concentration (EC50) not above 100 nM. In addition, in data set [2] (setting [4]), the recovery at 90 min was 64.1%. For the same compound, the recovery at 90 min in data set [2] (setting [5]) came to 91.7%. Further, in data set [2], the efflux ratio at 90 min came out at 1.5, the Papp A→B at 90 min was determined as 7.4 ×10⁻⁶ cm/s and the Papp B→A at 90 min was found to be 10.9 ×10⁻⁶ cm/s. Moreover, in data set [3], the EC50 was more than 1000 nM.

For the compound `CC(C)OC(=O)N[C@H]1CC[C@H](c2ncc(-c3ccc(NC(=O)OCc4ccccc4F)cc3S(=O)(=O)NC(C)(C)C)s2)CC1` [Ex. 70, trans-isopropyl N-[4-[5-[2-(tert-butylsulfamoyl)-4-[(2-fluorophenyl)methoxycarbonylamino]phenyl]thiazol-2-yl]cyclohexyl]carbamate], the values for the EC50 in data set [1] and in data set [3] were not above 100 nM and more than 1000 nM, respectively.

Take `CC(C)OC(=O)N[C@H]1CC[C@H](c2ncc(-c3ccc(NC(=O)O[C@@H](C)c4ccccc4)cc3S(=O)(=O)NC(C)(C)C)s2)CC1` [Ex. 71, trans-[(1S)-1-phenylethyl] N-[3-(tert-butylsulfamoyl)-4-[2-[4-(isopropoxycarbonylamino)cyclohexyl]thiazol-5-yl]phenyl]carbamate]: the EC50 was not above 100 nM in data set [1] and more than 1000 nM in data set [3].

Turning to `CC(C)OC(=O)N[C@H]1CC[C@H](c2ncc(-c3ccc(NC(=O)OCc4ccccn4)cc3S(=O)(=O)NC(C)(C)C)s2)CC1` [Ex. 72, trans-2-pyridylmethyl N-[3-(tert-butylsulfamoyl)-4-[2-[4-(isopropoxycarbonylamino)cyclohexyl]thiazol-5-yl]phenyl]carbamate], the results for the EC50 in data set [1] and in data set [3] were not above 100 nM and more than 1000 nM, respectively.

On to `CC(C)OC(=O)N[C@H]1CC[C@H](c2ncc(-c3ccc(NC(=O)NCc4ccc(O)cc4)cc3S(=O)(=O)NC(C)(C)C)s2)CC1` [Ex. 73, trans-isopropyl N-[4-[5-[2-(tert-butylsulfamoyl)-4-[(4-hydroxyphenyl)methylcarbamoylamino]phenyl]thiazol-2-yl]cyclohexyl]carbamate], for which the 50% effective concentration (EC50) in data set [1] was not above 100 nM; in data set [3], more than 1000 nM.

As for `CC(C)OC(=O)N[C@H]1CC[C@H](c2ncc(-c3ccc(NC(=O)NCc4ccccc4)cc3S(=O)(=O)NC(C)(C)CO)s2)CC1` [Ex. 74, trans-isopropyl N-[4-[5-[4-(benzylcarbamoylamino)-2-[(2-hydroxy-1,1-dimethyl-ethyl)sulfamoyl]phenyl]thiazol-2-yl]cyclohexyl]carbamate], the EC50 in data set [1] is not above 100 nM; in data set [3] it was more than 1000 nM.

Broadly, the EC50 is the midpoint of the concentration-response curve. A higher EC50 goes with weaker potency.

(Values after patent US10336746B1, “RAD51 inhibitors” (Cyteir Therapeutics, Inc., priority 2017, dated 2019).)
